pIC50, pKd: −log10 of the molar value. Active and inactive are the calls of the source. No cut-off for these calls is given here.
Experiments:
[1] = molecular target: T1, Isocitrate dehydrogenase [NADP] cytoplasmic (Homo sapiens, UniProt O75874); test: Inhibition of IDH1 (unknown origin) at 30 uM by enzymatic assay
[2] = test system: Isocitrate dehydrogenase [NADP] cytoplasmic (Homo sapiens), O75874 [R132C]; test: Inhibition of IDH1 R132C mutant (unknown origin) at 30 uM by enzymatic assay
[3] = species: Homo sapiens; test: Ratio of inhibition of IDH1 R132C mutant (unknown origin) at 30 uM to inhibition of IDH1 (unknown origin) at 30 uM by enzymatic assay
[4] = molecular target: T1, Isocitrate dehydrogenase [NADP] cytoplasmic; test: Binding affinity to IDH1 (unknown origin) by surface plasmon resonance assay
[5] = molecular target: T2, Isocitrate dehydrogenase [NADP] cytoplasmic (Homo sapiens, UniProt O75874, R132C); test: Binding affinity to IDH1 R132C mutant (unknown origin) by surface plasmon resonance assay
[6] = molecular target: T3, Isocitrate dehydrogenase [NADP] cytoplasmic (Homo sapiens, UniProt O75874, R132H); test: Binding affinity to IDH1 R132H mutant (unknown origin) by surface plasmon resonance assay
[7] = test system: Isocitrate dehydrogenase [NADP] cytoplasmic (Homo sapiens), O75874 [R132C]; test: Binding affinity to IDH1 R132C mutant (unknown origin) by mass spectrometry
[8] = test system: Isocitrate dehydrogenase [NADP] cytoplasmic (Homo sapiens), O75874 [R132H]; test: Binding affinity to IDH1 R132H mutant (unknown origin) by mass spectrometry
[9] = molecular target: T1, Isocitrate dehydrogenase [NADP] cytoplasmic; test: Inhibition of IDH1 (unknown origin) by enzymatic assay
[10] = molecular target: T2, Isocitrate dehydrogenase [NADP] cytoplasmic; test: Inhibition of IDH1 R132C mutant (unknown origin) by enzymatic assay
[11] = molecular target: T3, Isocitrate dehydrogenase [NADP] cytoplasmic; test: Inhibition of IDH1 R132H mutant (unknown origin) by enzymatic assay
[12] = test system: HT-1080; test: Antiproliferative activity against human HT1080 cells harboring IDH1-R132C mutation incubated for 48 hrs; format: functional, cell-based
[13] = Cytotoxicity against human RCTEC incubated for 48 hrs
[14] = test system: U-87 MG; test: Cytotoxicity against human U87MG cells harboring wild type IDH1 incubated for 48 hrs; format: functional, cell-based, U-87MG ATCC
[15] = test system: HT-1080; test: Reduction in 2 HG level in human HT1080 cells harboring IDH1-R132C mutation incubated for 48 hrs by LC-MS analysis relative to control; format: functional
[16] = test system: HT-1080; test: Reduction in CDK1 mRNA level in human HT1080 cells incubated for 48 hrs by qRT-PCR analysis; format: functional, cell-based
[17] = test system: HT-1080; test: Reduction in CDK2 mRNA level in human HT1080 cells incubated for 48 hrs by qRT-PCR analysis; format: functional, cell-based
[18] = test system: HT-1080; test: Reduction in CDK1 protein expression in human HT1080 cells incubated for 48 hrs by Western blot analysis; format: functional, cell-based
[19] = test system: HT-1080; test: Reduction in CDK2 protein expression in human HT1080 cells incubated for 48 hrs by Western blot analysis; format: functional, cell-based
[20] = test system: HT-1080; test: Reduction in ACO1 […] expression in human HT1080 cells by RNA-Seq data analysis; format: functional, cell-based
[21] = test system: HT-1080; test: Reduction in PDHB […] expression in human HT1080 cells by RNA-Seq data analysis; format: functional, cell-based
[22] = test system: HT-1080; test: Induction of cell cycle arrest in human HT1080 cells assessed accumulation at G1 phase at 5 uM incubated for 24 hrs by flow cytometric analysis (reference value: 31.67%); format: functional
[23] = test system: HT-1080; test: Induction of cell cycle arrest in human HT1080 cells assessed accumulation at S phase at 5 uM incubated for 24 hrs by flow cytometric analysis (reference value: 52.69%); format: functional
[24] = test system: HT-1080; test: Induction of cell cycle arrest in human HT1080 cells assessed accumulation at G2 phase at 5 uM incubated for 24 hrs by flow cytometric analysis (reference value: 15.64%); format: functional
[25] = test system: HT-1080; test: Induction of cell cycle arrest in human HT1080 cells assessed accumulation at G1 phase at 10 uM incubated for 24 hrs by flow cytometric analysis (reference value: 31.67%); format: functional
[26] = test system: HT-1080; test: Induction of cell cycle arrest in human HT1080 cells assessed accumulation at S phase at 10 uM incubated for 24 hrs by flow cytometric analysis (reference value: 52.69%); format: functional
[27] = test system: HT-1080; test: Induction of cell cycle arrest in human HT1080 cells assessed accumulation at G2 phase at 10 uM incubated for 24 hrs by flow cytometric analysis (reference value: 15.64%); format: functional
[28] = test system: HT-1080; test: Induction of cell cycle arrest in human HT1080 cells assessed accumulation at G1 phase at 20 uM incubated for 24 hrs by flow cytometric analysis (reference value: 31.67%); format: functional
[29] = test system: HT-1080; test: Induction of cell cycle arrest in human HT1080 cells assessed accumulation at S phase at 20 uM incubated for 24 hrs by flow cytometric analysis (reference value: 52.69%); format: functional
[30] = test system: HT-1080; test: Induction of cell cycle arrest in human HT1080 cells assessed accumulation at G2 phase at 20 uM incubated for 24 hrs by flow cytometric analysis (reference value: 15.64%); format: functional
[31] = test system: HT-1080; test: Induction of apoptosis in human HT1080 cells assessed as viable cells at 5 uM incubated for 48 hrs by flow cytometric analysis (reference value: 95.9%); format: functional; conditions: HT-1080, 48 h, read-out: Activity
[32] = test system: HT-1080; test: Induction of apoptosis in human HT1080 cells assessed as early apoptotic cells at 5 uM incubated for 48 hrs by flow cytometric analysis (reference value: 0.63%); format: functional
[33] = test system: HT-1080; test: Induction of apoptosis in human HT1080 cells assessed as late apoptotic cells at 5 uM incubated for 48 hrs by flow cytometric analysis (reference value: 2.48%); format: functional
[34] = test system: HT-1080; test: Induction of apoptosis in human HT1080 cells assessed as necrotic cells at 5 uM incubated for 48 hrs by flow cytometric analysis (reference value: 0.95%); format: functional
[35] = test system: HT-1080; test: Induction of apoptosis in human HT1080 cells assessed as viable cells at 10 uM incubated for 48 hrs by flow cytometric analysis (reference value: 95.9%); format: functional; conditions: HT-1080, 48 h, read-out: Activity
[36] = test system: HT-1080; test: Induction of apoptosis in human HT1080 cells assessed as early apoptotic cells at 10 uM incubated for 48 hrs by flow cytometric analysis (reference value: 0.63%); format: functional
[37] = test system: HT-1080; test: Induction of apoptosis in human HT1080 cells assessed as late apoptotic cells at 10 uM incubated for 48 hrs by flow cytometric analysis (reference value: 2.48%); format: functional
[38] = test system: HT-1080; test: Induction of apoptosis in human HT1080 cells assessed as necrotic cells at 10 uM incubated for 48 hrs by flow cytometric analysis (reference value: 0.95%); format: functional
[39] = test system: HT-1080; test: Induction of apoptosis in human HT1080 cells assessed as viable cells at 20 uM incubated for 48 hrs by flow cytometric analysis (reference value: 95.9%); format: functional; conditions: HT-1080, 48 h, read-out: Activity
[40] = test system: HT-1080; test: Induction of apoptosis in human HT1080 cells assessed as early apoptotic cells at 20 uM incubated for 48 hrs by flow cytometric analysis (reference value: 0.63%); format: functional
[41] = test system: HT-1080; test: Induction of apoptosis in human HT1080 cells assessed as late apoptotic cells at 20 uM incubated for 48 hrs by flow cytometric analysis (reference value: 2.48%); format: functional
[42] = test system: HT-1080; test: Induction of apoptosis in human HT1080 cells assessed as necrotic cells at 20 uM incubated for 48 hrs by flow cytometric analysis (reference value: 0.95%); format: functional
[43] = test system: HT-1080; test: Induction of cell cycle arrest in human HT1080 cells assessed accumulation at G2 phase incubated for 24 hrs by flow cytometric analysis; format: functional, cell-based

T1 sequence (O75874 whole entry): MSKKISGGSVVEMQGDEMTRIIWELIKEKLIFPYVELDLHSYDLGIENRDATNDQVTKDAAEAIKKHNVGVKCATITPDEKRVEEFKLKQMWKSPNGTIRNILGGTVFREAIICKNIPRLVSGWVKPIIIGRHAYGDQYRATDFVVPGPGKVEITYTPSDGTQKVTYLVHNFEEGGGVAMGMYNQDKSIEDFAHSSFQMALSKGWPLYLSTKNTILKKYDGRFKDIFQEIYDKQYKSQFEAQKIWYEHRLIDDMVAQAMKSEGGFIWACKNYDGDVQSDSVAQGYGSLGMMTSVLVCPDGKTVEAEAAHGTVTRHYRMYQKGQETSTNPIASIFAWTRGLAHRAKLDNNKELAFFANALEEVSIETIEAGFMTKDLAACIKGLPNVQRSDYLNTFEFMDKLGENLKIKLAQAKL
T3 sequence (O75874 2-414 R132H limits assumed): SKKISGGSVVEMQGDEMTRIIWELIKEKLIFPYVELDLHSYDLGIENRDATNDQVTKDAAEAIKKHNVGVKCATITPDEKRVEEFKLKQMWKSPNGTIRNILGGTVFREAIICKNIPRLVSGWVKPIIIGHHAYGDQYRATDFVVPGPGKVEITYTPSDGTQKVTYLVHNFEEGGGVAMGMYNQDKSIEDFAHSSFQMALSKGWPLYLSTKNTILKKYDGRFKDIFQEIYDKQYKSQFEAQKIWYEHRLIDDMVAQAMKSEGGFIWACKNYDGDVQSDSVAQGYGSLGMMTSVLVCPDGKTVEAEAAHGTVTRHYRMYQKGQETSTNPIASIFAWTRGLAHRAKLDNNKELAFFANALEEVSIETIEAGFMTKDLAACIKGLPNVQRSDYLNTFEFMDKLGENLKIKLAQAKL
Sequence of Isocitrate dehydrogenase [NADP] cytoplasmic (Homo sapiens), O75874 [R132C] (O75874 whole entry R132C): as the sequence (O75874 whole entry) above, with R132C counted along it
T2 sequence (O75874 2-414 R132C limits assumed): as the sequence (O75874 2-414 R132H limits assumed) above, with H131C counted along it
Sequence of Isocitrate dehydrogenase [NADP] cytoplasmic (Homo sapiens), O75874 [R132H] (O75874 whole entry R132H): as the sequence (O75874 whole entry) above, with R132H counted along it

## C=CC(C)(C)c1cc(/C=C/C(=O)c2ccc(O)cc2)c(OC)cc1O [LICOAGROCHACONE A]
[1]
  inhibition: inactive
[2]
  inhibition: Active
[3]
  Ratio: 3
[4]
  pKd: < 4.30
[5]
  pKd: 5.55
[6]
  pKd: 4.89
[7]
  Activity: Active
[8]
  Activity: inactive
[9]
  pIC50: < 4.00
[10]
  pIC50: 5.29
[11]
  pIC50: 4.11
[12]
  Activity: Dose-dependent effect
[12]; HT-1080, 48 h
  pIC50: 4.97
[13]
  pIC50: < 4.30
[14]
  pIC50: < 4.30
[15]
  inhibition: Dose-dependent effect
  inhibition (INH): >50%
[16]
  inhibition: Dose-dependent effect
[17]
  inhibition: Dose-dependent effect
[18]
  inhibition: Dose-dependent effect
[19]
  inhibition: Dose-dependent effect
[20]
  inhibition: Dose-dependent effect
[21]
  inhibition: Dose-dependent effect
[22]
  Activity: 35.93%
[23]
  Activity: 43.13%
[24]
  Activity: 20.94%
[25]
  Activity: 21.99%
[26]
  Activity: 45.83%
[27]
  Activity: 24.18%
[28]
  Activity: 24.76%
[29]
  Activity: 41.29%
[30]
  Activity: 33.95%
[31]
  viability at 5 µM: 80.5%
[32]
  Activity: 1.26%
[33]
  Activity: 15.2%
[34]
  Activity: 3.13%
[35]
  viability at 10 µM: 64.1%
[36]
  Activity: 4.97%
[37]
  Activity: 26.6%
[38]
  Activity: 4.4%
[39]
  viability at 20 µM: 42%
[40]
  Activity: 0.82%
[41]
  Activity: 54.4%
[42]
  Activity: 2.79%
[43]
  Activity: Dose-dependent effect
